Results from patent publication US9499510B2, “Pro-drug compounds” (Proximagen Limited, priority 2012, dated 2016).
Counter-ions that a name gives are not always drawn. Values belong to the molecule of their own block, whether it stands above or below them.

Legend:
[1] = Solubility in aqueous solution (pH 2 to 10); format: physicochemical
Text: In an embodiment, prodrugs of the present invention are suitable for oral administration. The skilled person understands that the pH of the gastrointestinal tract changes along its length. For example, the stomach has a pH of around pH 1.5 and the GI tract after the stomach has a pH of around 5 to 7.5. For more detail see, for example, Measurement of gastrointestinal pH profiles in normal ambulant human subjects, Gut. 1988 August; 29(8): 1035-1041. Improved solubility is expected to result in improved absorption, and therefore improved oral bioavailability. Thus improved solubility at any pH value between around pH 1.5 to 8 is expected to improve oral bioavailability. Compounds of the invention were assessed for solubility in aqueous solutions having a pH of from 2 to 10. In an embodiment prodrugs of the invention have a solubility of >0.5 mg/mL in an aqueous solution having a pH of from 2 to 10, including from 2 to 8. In an embodiment prodrugs have a solubility of >5.0 mg/mL, or >10.0 mg/mL, >100.0 mg/mL, or >200.0 mg/mL in an aqueous solution having a pH of from 2 to 10, including from 2 to 8. In an embodiment the prodrugs have the aforementioned aqueous solubility at a pH within the range of from 4 to 8, or from 6 to 8.
In an embodiment, prodrugs of the invention are administered intravenously. High prodrug solubility is advantageous in order to reduce the volume of solution administered to the patient, and to reduce the risk of damage to the circulatory system. Solubility in an aqueous solution having a pH of from 2 to 10 of >10 mg/mL is preferred. Yet more preferred is solubility in an aqueous solution having a pH of from 2 to 10 of >30 mg/mL or >100.0 mg/mL. Yet more preferred is solubility in an aqueous solution having a pH of from 2 to 10 of >200.0 mg/mL. The solubility is measured in an aqueous solution having a pH of from 2 to 10, which pH range is advantageous for intravenous prodrug delivery. See, for example, A guide on intravenous drug compatibilities based on their pH, Nasser S C et al./Pharmacie Globale (IJCP) 2010, 5 (01)). In an embodiment the prodrugs of the claimed invention have solubility of >10 mg/mL in an aqueous solution having a pH of from 2 to 10. In an embodiment the prodrugs have the aforementioned aqueous solubility at a pH within the range of from 2 to 8, or from 4 to 8, or from 6 to 8. The solubility of the Examples is illustrated in Table 1.

[2] = molecular target: T1, human ether a go-go related gene (hERG) K+ channel (Homo sapiens, UniProt Q12809); test: hERG assay, IonWorks patch clamp electrophysiology; format: cell-based; settings: Chinese Hamster Lung cell line stably expressing hERG; maximum assay concentration 33 uM
T1 construct: Chinese Hamster Lung cell line stably expressing the full length hERG channel; expressed in transfected cells; host or cells: Chinese Hamster Lung cell line
Procedure: Compounds of the invention were tested for inhibition of the human ether a go-go related gene (hERG) K^+ channel using IonWorks patch clamp electrophysiology. 8 Point concentration-response curves were generated on two occasions using 3-fold serial dilutions from the maximum assay concentration (33 uM). Electrophysiological recordings were made from a Chinese Hamster Lung cell line stably expressing the full length hERG channel. Single cell ion currents were measured in the perforated patch clamp configuration (100 ug/mL amphoterocin) at room temperature using an IonWorks Quattro instrument. The internal solution contained 140 mM KCl, 1 mM MgCl2, 1 mM EGTA and 20 mM HEPES and was buffered to pH 7.3. The external solution contained 138 mM NaCl, 2.7 mM KCl, 0.9 mM CaCl2, 0.5 mM MgCl2, 8 mM Na2HPO4 and 1.5 mM KH2PO4, and was buffered to pH 7.3. Cells were clamped at a holding potential of […] for 30 s and then stepped to +40 mV for 1 s. This was followed by a hyperpolarising step of 1 s to […] to evoke the hERG tail current. This sequence was repeated 5 times at a frequency of 0.25 Hz. Currents were measured from the tail step at the 5th pulse, and referenced to the holding current. Compounds were incubated for 6-7 min prior to a second measurement of the hERG signal using an identical pulse train. A minimum of 17 cells were required for each pIC50 curve fit. […]

T1 sequence (Q12809 whole entry): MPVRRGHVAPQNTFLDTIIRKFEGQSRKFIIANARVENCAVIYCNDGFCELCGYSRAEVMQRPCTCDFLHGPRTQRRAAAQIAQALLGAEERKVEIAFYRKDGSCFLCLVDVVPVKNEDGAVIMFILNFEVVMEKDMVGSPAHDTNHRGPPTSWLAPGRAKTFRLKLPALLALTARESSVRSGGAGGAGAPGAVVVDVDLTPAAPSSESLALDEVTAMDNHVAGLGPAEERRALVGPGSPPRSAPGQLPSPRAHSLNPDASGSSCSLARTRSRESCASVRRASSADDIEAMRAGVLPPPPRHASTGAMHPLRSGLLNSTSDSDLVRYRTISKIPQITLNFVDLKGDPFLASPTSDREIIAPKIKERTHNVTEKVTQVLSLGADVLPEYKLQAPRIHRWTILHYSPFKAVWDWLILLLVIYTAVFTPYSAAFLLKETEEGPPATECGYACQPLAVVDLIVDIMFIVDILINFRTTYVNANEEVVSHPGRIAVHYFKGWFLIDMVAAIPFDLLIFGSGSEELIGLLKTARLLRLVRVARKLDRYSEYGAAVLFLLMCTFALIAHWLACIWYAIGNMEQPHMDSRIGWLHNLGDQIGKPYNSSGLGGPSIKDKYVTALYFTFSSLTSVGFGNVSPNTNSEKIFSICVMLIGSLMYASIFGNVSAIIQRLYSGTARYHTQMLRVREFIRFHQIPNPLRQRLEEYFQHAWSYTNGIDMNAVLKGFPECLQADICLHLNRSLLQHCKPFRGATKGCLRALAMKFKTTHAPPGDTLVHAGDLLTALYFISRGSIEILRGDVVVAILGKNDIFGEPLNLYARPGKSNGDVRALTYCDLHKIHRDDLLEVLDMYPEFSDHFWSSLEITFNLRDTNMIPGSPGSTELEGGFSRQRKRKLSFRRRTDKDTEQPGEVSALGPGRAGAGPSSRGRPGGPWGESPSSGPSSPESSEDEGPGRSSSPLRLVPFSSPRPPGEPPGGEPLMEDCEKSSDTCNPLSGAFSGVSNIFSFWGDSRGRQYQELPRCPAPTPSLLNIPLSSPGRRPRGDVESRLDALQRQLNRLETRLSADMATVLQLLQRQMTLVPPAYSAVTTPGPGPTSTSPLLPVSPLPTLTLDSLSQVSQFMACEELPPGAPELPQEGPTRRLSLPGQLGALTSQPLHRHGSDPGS

solubility ([1]; pH 5.7, aqueous buffer): > 50000 µg/mL
Structure (SMILES): CC(=O)c1ccc2c(c1)[C@H](NC(=O)c1ccc(F)c(Cl)c1)[C@H](OP(=O)(O)O)C(C)(C)O2 [Example 1, {[(3S,4S)-6-Acetyl-4-[(3-chloro-4-fluorobenzene)amido]-2,2-dimethyl-3,4-dihydro-2H-1-benzopyran-3-yl]oxy}phosphonic acid]
IC50 [2]: > 11 µM

solubility ([1]; pH 3.6, aqueous buffer): > 20000 µg/mL
Structure (SMILES): CC(=O)c1ccc2c(c1)[C@H](NC(=O)c1ccc(F)c(Cl)c1)[C@H](OC(=O)CN(C)C)C(C)(C)O2 [Example 2, (3S,4S)-6-Acetyl-4-[(3-chloro-4-fluorobenzene)amido]-2,2-dimethyl-3,4-dihydro-2H-1-benzopyran-3-yl 2-(dimethylamino)acetate hydrochloride]

solubility ([1]; pH 3.5, aqueous buffer): < 250 µg/mL
Structure (SMILES): CC(=O)O[C@H]1[C@@H](NC(=O)c2ccc(F)c(Cl)c2)c2cc(C(C)=O)ccc2OC1(C)C [Example 3, (3S,4S)-6-Acetyl-4-[(3-chloro-4-fluorobenzene)amido]-2,2-dimethyl-3,4-dihydro-2H-1-benzopyran-3-yl acetate]

solubility ([1]; pH 3.5, aqueous buffer): < 250 µg/mL
Structure (SMILES): CC(=O)OCO[C@H]1[C@@H](NC(=O)c2ccc(F)c(Cl)c2)c2cc(C(C)=O)ccc2OC1(C)C [Example 4, {[(3S,4S)-6-Acetyl-4-[(3-chloro-4-fluorobenzene)amido]-2,2-dimethyl-3,4-dihydro-2H-1-benzopyran-3-yl]oxy}methyl acetate]

solubility ([1]; aqueous buffer, pH 3.0): > 2000 µg/mL
Structure (SMILES): CC(=O)c1ccc2c(c1)[C@H](NC(=O)c1ccc(F)c(Cl)c1)[C@H](OCOC(=O)CN(C)C)C(C)(C)O2 [Example 5, {[(3S,4S)-6-Acetyl-4-[(3-chloro-4-fluorobenzene)amido]-2,2-dimethyl-3,4-dihydro-2H-1-benzopyran-3-yl]oxy}methyl 2-(dimethylamino)acetate]

solubility ([1]; aqueous buffer, pH 4.0): > 20000 µg/mL
Structure (SMILES): CC(=O)c1ccc2c(c1)[C@H](NC(=O)c1ccc(F)c(Cl)c1)[C@H](OC(=O)CN)C(C)(C)O2 [Example 6, (3S,4S)-6-Acetyl-4-[(3-chloro-4-fluorobenzene)amido]-2,2-di methyl-3,4-dihydro-2H-1-benzopyran-3-yl 2-aminoacetate hydrochloride]

solubility ([1]; pH 4.4, aqueous buffer): > 20000 µg/mL
Structure (SMILES): CNCC(=O)O[C@H]1[C@@H](NC(=O)c2ccc(F)c(Cl)c2)c2cc(C(C)=O)ccc2OC1(C)C [Example 7, (3S,4S)-6-acetyl-4-[(3-chloro-4-fluorobenzene)amido]-2,2-di methyl-3,4-dihydro-2H-1-benzopyran-3-yl 2-(methylamino)acetate hydrochloride]

solubility ([1]; pH 5.7, aqueous buffer): > 200000 µg/mL
Structure (SMILES): CC(=O)c1ccc2c(c1)[C@H](NC(=O)c1ccc(F)c(Cl)c1)[C@H](OCOP(=O)(O)O)C(C)(C)O2 [Example 8, ({[(3S,4S)-6-Acetyl-4-[(3-chloro-4-fluorobenzene)amido]-2,2-dimethyl-3,4-dihydro-2H-1-benzopyran-3-yl]oxy}methoxy)phosphonic acid diamine]

solubility ([1]; pH 2.7, aqueous buffer): > 5000 µg/mL
Structure (SMILES): CC(=O)c1ccc2c(c1)[C@H](NC(=O)c1ccc(F)c(Cl)c1)[C@H](OC(=O)[C@@H](N)CC(C)C)C(C)(C)O2.Cl [Example 9, (3S,4S)-6-Acetyl-4-[(3-chloro-4-fluorobenzene)amido]-2,2-di methyl-3,4-dihydro-2H-1-benzopyran-3-yl(2S)-2-amino-4-methylpentanoate hydrochloride]

solubility ([1]; pH 4.4, aqueous buffer): > 10000 µg/mL
Structure (SMILES): CCCNCC(=O)O[C@H]1[C@@H](NC(=O)c2ccc(F)c(Cl)c2)c2cc(C(C)=O)ccc2OC1(C)C.Cl [Example 10, (3S,4S)-6-Acetyl-4-[(3-chloro-4-fluorobenzene)amido]-2,2-di methyl-3,4-dihydro-2H-1-benzopyran-3-yl 2-(propylamino)acetate hydrochloride]

solubility ([1]; pH 4.2, aqueous buffer): > 10000 µg/mL
Structure (SMILES): CC(=O)c1ccc2c(c1)[C@H](NC(=O)c1ccc(F)c(Cl)c1)[C@H](OC(=O)CNC(C)C)C(C)(C)O2.Cl [Example 11, (3S,4S)-6-Acetyl-4-[(3-chloro-4-fluorobenzene)amido]-2,2-di methyl-3,4-dihydro-2H-1-benzopyran-3-yl 2-[(propan-2-yl)amino]acetate hydrochloride]
